Laboratory results as given in patent US20080207725A1, “Phenyl-Pyrazole Derivatives as Non-Steroidal Glucocorticoid Receptor Ligands” (Glaxo Group Limited, a corporation, priority 2005, published 2008).

system: NFkB activity; test: Glucocorticoid mediated transrepression of NFkB activity (A549 ELAM promoter SPAP reporter, TNFα stimulated); format: cell-based; details: Human A549 lung epithelial cells, 3 ng/ml human recombinant TNFα, 16 hours; read-out: pEC50, transrepression of NFkB activity (converted)
Description: Human A549 lung epithelial cells were engineered to contain a secreted placental alkaline phosphatase gene under the control of the distal region of the NFkB dependent ELAM promoter as previously described in Ray, K. P., Farrow, S., Daly, M., Talabot, F. and Searle, N. “Induction of the E-selectin promoter by interleukin 1 and tumour necrosis factor alpha, and inhibition by glucocorticoids” Biochemical Journal (1997) 328: 707-15.
Compounds were solvated and diluted in DMSO, and transferred directly into assay plates such that the final concentration of DMSO was 0.7%. Following the addition of cells (40K per well), plates were incubated for 1 hour prior to the addition of 3 ng/ml human recombinant TNFα. Following continued incubation for 16 hours, alkaline phosphatase activity was determined by measuring the change in optical density at 405 nm with time following the addition of 0.7 volumes of assay buffer (1 mg/ml p-nitrophenylphosphate dissolved in 1M diethanolamine, 0.28M NaCl, 0.5 mM MgCl2). Dose response curves were constructed from which EC50 values were estimated.

EC50, < 3.16 nM:
CC(C)(C[C@@](O)(CNC(=O)c1cnn(-c2ccc(F)cc2F)c1N)C(F)(F)F)c1cccc2c1OCC2 [Example 14, (2R)-5-Amino-1-(2,4-difluorophenyl)-N-[4-(2,3-dihydro-1-benzofuran-7-yl)-2-hydroxy-4-methyl-2-(trifluoromethyl)pentyl]-1H-pyrazole-4-carboxamide]
CC(C)(C[C@@](O)(CNC(=O)c1cnn(-c2ccc(F)cc2)c1N)C(F)(F)F)c1cccc2c1OCC2 [Example 13, (2R)-5-Amino-N-[4-(2,3-dihydro-1-benzofuran-7-yl)-2-hydroxy-4-methyl-2-(trifluoromethyl)pentyl]-1-(4-fluorophenyl)-1H-pyrazole-4-carboxamide]
CC(C)(C[C@@](O)(CNC(=O)c1cnn(-c2ccccc2)c1N)C(F)(F)F)c1cc(F)ccc1O [Example 11, (2R)-5-Amino-N-[4-(5-fluoro-2-hydroxyphenyl)-2-hydroxy-4-methyl-2-(trifluoromethyl)pentyl]-1-phenyl-1H-pyrazole-4-carboxamide]
CC(C)(C[C@@](O)(CNC(=O)c1cnn(-c2ccc(F)cc2)c1N)C(F)(F)F)c1cc(F)ccc1O [Example 7, (2R)-5-Amino-N-[4-(5-fluoro-2-hydroxyphenyl)-2-hydroxy-4-methyl-2-(trifluoromethyl)pentyl]-1-(4-fluorophenyl)-1H-pyrazole-4-carboxamide]
CC(C)(C[C@@](O)(CNC(=O)c1cnn(-c2ccccc2)c1N)C(F)(F)F)c1cccc2c1OCC2 [Example 1, (2R)-5-Amino-N-[4-(2,3-dihydro-1-benzofuran-7-yl)-2-hydroxy-4-methyl-2-(trifluoromethyl)pentyl]-1-phenyl-1H-pyrazole-4-carboxamide]
CC(C)(C[C@@](O)(CNC(=O)c1cnn(-c2ccc(Cl)cc2)c1N)C(F)(F)F)c1cc(F)ccc1O [Example 10, (2R)-5-Amino-1-(4-chlorophenyl)-N-[4-(5-fluoro-2-hydroxyphenyl)-2-hydroxy-4-methyl-2-(trifluoromethyl)pentyl]-1H-pyrazole-4-carboxamide]
CC(C)(C[C@@](O)(CNC(=O)c1cnn(-c2ccccc2F)c1N)C(F)(F)F)c1cc(F)ccc1O [Example 8, (2R)-5-Amino-N-[4-(5-fluoro-2-hydroxyphenyl)-2-hydroxy-4-methyl-2-(trifluoromethyl)pentyl]-1-(2-fluorophenyl)-1H-pyrazole-4-carboxamide]
COc1ccc(F)cc1C(C)(C)C[C@@](O)(CNC(=O)c1cnn(-c2ccc(F)cc2)c1N)C(F)(F)F [Example 2, (2R)-5-Amino-N-[4-[5-fluoro-2-(methyloxy)phenyl]-2-hydroxy-4-methyl-2-(trifluoromethyl)pentyl]-1-(4-fluorophenyl)-1H-pyrazole-4-carboxamide]
COc1ccc(F)cc1C(C)(C)C[C@@](O)(CNC(=O)c1cnn(-c2ccc(Cl)cc2)c1N)C(F)(F)F [Example 5, (2R)-5-Amino-1-(4-chlorophenyl)-N-[4-[5-fluoro-2-(methyloxy)phenyl]-2-hydroxy-4-methyl-2-(trifluoromethyl)pentyl]-1H-pyrazole-4-carboxamide]
COc1ccc(F)cc1C(C)(C)C[C@@](O)(CNC(=O)c1cnn(-c2ccc(F)cc2F)c1N)C(F)(F)F [Example 4, (2R)-5-Amino-1-(2,4-difluorophenyl)-N-[4-[5-fluoro-2-(methyloxy)phenyl]-2-hydroxy-4-methyl-2-(trifluoromethyl)pentyl]-1H-pyrazole-4-carboxamide]
CC(C)(C[C@@](O)(CNC(=O)c1cnn(-c2ccc(F)cc2F)c1N)C(F)(F)F)c1cc(F)ccc1O [Example 9, (2R)-5-Amino-1-(2,4-difluorophenyl)-N-[4-(5-fluoro-2-hydroxyphenyl)-2-hydroxy-4-methyl-2-(trifluoromethyl)pentyl]-1H-pyrazole-4-carboxamide]
CC(C)(C[C@@](O)(CNC(=O)c1cnn(-c2ccccc2F)c1N)C(F)(F)F)c1cccc2c1OCC2 [Example 12, (2R)-5-Amino-N-[4-(2,3-dihydro-1-benzofuran-7-yl)-2-hydroxy-4-methyl-2-(trifluoromethyl)pentyl]-1-(2-fluorophenyl)-1H-pyrazole-4-carboxamide]
COc1ccc(F)cc1C(C)(C)C[C@@](O)(CNC(=O)c1cnn(-c2ccccc2)c1N)C(F)(F)F [Example 6, (2R)-5-Amino-N-[4-[5-fluoro-2-(methyloxy)phenyl]-2-hydroxy-4-methyl-2-(trifluoromethyl)pentyl]-1-phenyl-1H-pyrazole-4-carboxamide]
CC(C)(C[C@@](O)(CNC(=O)c1cnn(-c2ccc(Cl)cc2)c1N)C(F)(F)F)c1cccc2c1OCC2 [Example 15, (2R)-5-Amino-1-(4-chlorophenyl)-N-[4-(2,3-dihydro-1-benzofuran-7-yl)-2-hydroxy-4-methyl-2-(trifluoromethyl)Pentyl]-1H-pyrazole-4-carboxamide]
COc1ccc(F)cc1C(C)(C)C[C@@](O)(CNC(=O)c1cnn(-c2ccccc2F)c1N)C(F)(F)F [Example 3, (2R)-5-Amino-N-[4-[5-fluoro-2-(methyloxy)phenyl]-2-hydroxy-4-methyl-2-(trifluoromethyl)pentyl]-1-(2-fluorophenyl)-1H-pyrazole-4-carboxamide]
